Data on two compounds can be found in patent US7220784B2, “Substituted stilbenes and their reactions” (priority 2000, dated 2007).

For one data set, the system named is K562 cells. The data set can be described thus: In situ ultra violet irradiation of dosed K562 cells, IC50. It is filed as cell-based, human. The note with it: Homo sapiens, read-out: IC50 K562.
Another data set relates to K562. Kind of data set: IC50 of aliquots after ex situ irradiation in a photochemical reactor. The following applies: Homo sapiens, K562, light or radiation study, read-out: IC50 (K562) (nM).
Data set [1] concerns P388 murine leukaemia cell line. Kind of data set: Cytotoxicity/growth inhibition assay (MTT), P388. The class given is cell-based. The following applies: MTT. Summed up: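 Growth inhibition of P388 murine and K562 human leukaemia cells measured by MTT assay.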
Data set [2] concerns H460 human lung cancer xenografts. Kind of data set: Anti-tumour efficacy in xenografts of H460 human lung cancer. It is filed as in vivo, mice. The following applies: H460 human lung cancer xenograft. As to the method: (2) Competition for the colchicine binding site on tubulin. The figure quoted represents the % of ^3H-colchicine bound following co-incubation of test compound and ^3H-cochicine with isolated tubulin. Where ester pro-drugs were used the experiments were carried out in the presence and absence of porcine liver esterase. • (3) Cytotoxicity/growth inhibition assay. This was carried out by the MTT assay. • (4) Permeability (shape-change) assay in endothelial cells. This was carried out using a method based on that of Watts et al. (Anticancer Res., 17, 71–75, (1997)). This involved the diffusion of a fluorescently labelled dextran through a barrier of endothelial cells (HUVEC) grown to confluence on a porous membrane. […] The anti-vascular effects of the agents were monitored by either positron emission tomography (PET) or by histologogical examination following treatment of mice bearing T50:80 murine breast tumours, or H460 human lung tumours. • (6) Anti-tumour efficacy of agents was determined in xenografts of H460 human lung cancer. Animals (n=5) were trated either with 5 daily injections and tumour size measured with time following treatment. • (7) The pharmacokinetic profile of agents was determined in mice following injection with drug. Blood was taken at various times following treatment and analysed by HPLC with UV detection. […]
Background: In xenograft studies the graft and the host belong to different species.

A short description of data set [3]: Pharmacokinetic profile in mice. The class given is in vivo. The note with it: 200 mg/kg.

Molecules are shown by their SMILES. Where two headings read alike, the source gives them in different places.

In the case of `COc1ccc(/C=C/c2cc(OC)c(OC)c(OC)c2)cc1O` [trans-CA-4, trans-combretastatin A-4], the IC50 (commonly the concentration that inhibits the measured activity by half) stood at 1200 nM in the data set with K562 cells (K562, 0 h, in situ UV 0 mins (Table 6)); 3.6 nM with K562 cells (K562, 1 min, in situ UV 1 mins (Table 6)); 2.9 nM in the data set with K562 cells (K562, 2 min, in situ UV 2 mins (Table 6)); 1.7 nM with K562 cells (K562, 0.05 h, in situ UV 3 mins (Table 6)); 4.4 nM in the data set with K562 cells (K562, 4 min, in situ UV 4 mins (Table 6)); 2.7 nM in the data set on K562 cells (K562, 5 min, in situ UV 5 mins (Table 6)). The concentration for half-maximal inhibition (IC50) with K562 cells (K562, 0.1 h, in situ UV 6 mins (Table 6)) is 2.9 nM; with K562 cells (K562, 7 min, in situ UV 7 mins (Table 6)), 1.9 nM; in the data set with K562 cells (K562, 8 min, in situ UV 8 mins (Table 6)), 3 nM; with K562 cells (K562, 0.15 h, in situ UV 9 mins (Table 6)), 2.5 nM; in the data set with K562 cells (K562, 12.5 min, in situ UV 12.5 mins (Table 6)) it was 2.4 nM; in the data set on K562 cells (K562, 0.25 h, in situ UV 15.0 mins (Table 6)) it was 2 nM. The IC50 with K562 cells (K562, 17.5 min, in situ UV 17.5 mins (Table 6)) is 1.7 nM; in the data set with K562 cells (K562, 20 min, in situ UV 20.0 mins (Table 6)), 2.7 nM; in the data set with K562 cells (K562, in situ UV, repeated experiment, 0 secs (Table 7)), 580 nM; in the data set with K562 cells (K562, in situ UV, repeated experiment, 5 secs (Table 7)) it was 35 nM; in the data set on K562 cells (K562, in situ UV, repeated experiment, 10 secs (Table 7)) it was 40 nM; with K562 cells (K562, in situ UV, repeated experiment, 15 secs (Table 7)), 20 nM. Besides, the IC50 in the data set with K562 cells (K562, in situ UV, repeated experiment, 20 secs (Table 7)) is 18 nM; with K562 cells (K562, in situ UV, repeated experiment, 25 secs (Table 7)) it was 17 nM; in the data set with K562 cells (K562, in situ UV, repeated experiment, 30 secs (Table 7)), 15 nM; with K562 cells (K562, in situ UV, repeated experiment, 35 secs (Table 7)), 11 nM; with K562 cells (K562, in situ UV, repeated experiment, 40 secs (Table 7)) it was 11 nM; in the data set with K562 cells (K562, in situ UV, repeated experiment, 45 secs (Table 7)), 9 nM. Also, the half-inhibitory concentration (IC50) with K562 cells (K562, in situ UV, repeated experiment, 50 secs (Table 7)) came out at 9 nM; in the data set on K562 cells (K562, in situ UV, repeated experiment, 55 secs (Table 7)), 9 nM; with K562 cells (K562, in situ UV, repeated experiment, 60 secs (Table 7)), 8 nM; in the data set with K562 (0 h), 4000 nM; in the data set on K562 (0.5 min), 310 nM; in the data set on K562 (1 min) it was 530 nM. Moreover, the IC50 turned out to be 50 nM in the data set with K562 (0.025 h); 20 nM with K562 (2 min); 12 nM in the data set with K562 (0.05 h); 9 nM in the data set on K562 (4 min); 10 nM in the data set with K562 (5 min); 3 nM in the data set on K562 (0.125 h). For the same compound, the IC50 in the data set with K562 (10 min) came to 6 nM; with K562 (12.5 min), 4 nM; with K562 (0.25 h), 1 nM; in the data set on K562 (17.5 min) it was 3 nM; in the data set with K562 (20 min), 2 nM.

In the case of `COc1ccc(C=Cc2cc(OC)c(OC)c(OC)c2)cc1F` [Compound 97-64H], the IC50 in data set [1] amounted to 0.489 nM. Also, the “anti-tumour activity in vivo” value in data set [2] is reported as “shows anti-tumour activity in vivo”. In addition, the concentration in data set [3] (mouse, in vivo, po) peaked (Cmax) at 1.49 µg/mL. Also, the half-life (as a rule, the time needed for the level to fall by half in the phase considered) in data set [3] (mouse, in vivo, po, absorption half life) amounted to 15 min; in data set [3] (mouse, in vivo, po, elimination half life), 32 min. In addition, the “concentration achieved in vivo” value in data set [3] (oral) came to 1490 µg/mL. Also, in data set [3] (oral), the “concentration achieved in vivo (molar)” value was determined as 4600 µM.
